Experimental data reported in US20170010280A1, “GDF15 AS BIOMARKER FOR DIAGNOSING MITOCHONDRIAL DISEASES” (TOKYO METROPOLITAN GERIATRIC HOSPITAL AND INSTITUTE OF …, priority 2014, published 2017).
Like-named read-outs stand apart in the source and are kept apart here.

Experiments:
2SD cells [1] = details: 10 mM, 4 hours after treatment, non-patent document 1; cited from earlier work
2SA cells (control cell) [2] = experiment: metabolome analysis of energy metabolism; format: cell-based, human; details: high concentration
Method: (§1) (ii) Metabolome analysis were performed using 2SA cells and 2SD cells. […] The energy metabolism disorder has become remarkable 4 hours after treatment of high concentration of lactic acid (10 mM) in 2SD cells, and the phenomenon was not observed after treatment of high concentration of pyruvic acid (10 mM). The energy metabolism disorder was not observed after treatment of high concentration of lactic acid in 2SA cells. Based on the results, we came up with the forecast that the genes expressed in 2SD cells with energy metabolism disorders in a high concentration of lactic acid may be new biomarkers that reflects the energy metabolic disorder of mitochondrial disease patients.

2SD cells [3] = experiment: metabolome analysis of energy metabolism; format: cell-based, human; details: 10 mM, 4 hours after treatment
Method: as §1

2SA cells (control cell) [4] = details: high concentration, non-patent document 1; cited from earlier work
2SD cells [5] = experiment: quantitative RT-PCR of GDF15, INHBE and IL1A expression; format: cell-based, human; details: 10 mM, 4 and 8 hours after treatment
Method: Total RNA was isolated from cells with miRNeasy-minikit (Qiagen), and reverse transcribed to cDNA with a High Capacity cDNA Reverse Transcription Kit (Life Technologies, Carlsbad, Calif., USA) used according to the manufacturer's protocols. Real-time PCR was performed on the StepOnePlus Real-Time PCR System (Life Technologies) using Power SYBR Green PCR Master Mix. 18S rRNA gene was used as an internal control for normalization. The sequences of primers are listed in Table 1(The numbers in the sequence listing, SEQ ID NO: 1 to 1 stage left, SEQ ID NO: 2 to the right sequentially subjected to SEQ ID NO: 8.).
(iv) In order to determine the expression level of GDF15, INHBE and IL1A in cells, quantitative RT-PCRs were performed. The expression level of GDF15, INHBE, and IL1A were increased at 4 and 8 hours after treatment with 10 mM lactate in 2SD cells, otherwise they were not changed after treatment with 10mM pyruvate. The expression level of GDF15 was higher in 2SD cells than in 2SA cells at 0 hour. On the results, the reproducibility of the microarray data were confirmed. GDF15, INHBE, and IL1A were identified as biomarkers for mitochondrial diseases (FIG. 2 to FIG. 4).

[6] = test system: 2SD cells (mitochondrial disease model cell); experiment: exhaustive gene expression analysis (microarray) after lactate or pyruvate treatment; format: cell-based, human
From the text: (i) Cybrid cells established from myoblasts in MELAS (mitochondrial myopathy, encephalopathy, lactic acidosis, and stroke-like episodes), which is relatively high incident among mitochondrial diseases patient and human osteosarcoma 143B cells were used in the experiment. Specifically, myoblast cells from MELAS patients lacking the cell nuclei were fused with human osteosarcoma-derived 143B cells lacking mitochondrial DNA (mtDNA). From some fused cell lines, a cell line without m.3243A>G mutation in mtDNA was used as control cell (2SA) and a cell line with m.3243A>G mutation with 94% was used as mitochondrial disease model cell (2SD) (the mutation ratio is not 100%, because mitochondria is heteroplasmy). Cells were cultured in high-glucose Dulbecco's modified Eagle's medium (DMEM) supplemented with 10% FBS, 1 mM sodium pyruvate, and 0.4 mM uridine at 37° C. under a humidified atmosphere of 5% CO2. Total RNA was isolated from cells by using a miRNeasy mini kit (Qiagen, Venlo, Netherlands). One hundred nanograms of total RNA was labeled and amplified with a low input quick amp labeling kit (Agilent Technologies, Santa Clara, Calif., USA) used according to the manufacturer's instructions. The labeled cRNA was hybridized to the Agilent SurePrint G3 Human GE 8×60K Microarray in a rotating hybridization oven at 10 rpm for 20 h at 65° C. After hybridization, the microarrays were washed according to the manufacturer's instructions and scanned on an Agilent DNA Microarray Scanner with Scan Control software. The resulting images were processed, and raw data were collected by using Agilent Feature Extraction software. Expression data were analyzed by using GeneSpring GX 11 (Agilent Technologies). The signal intensity of each probe was normalized by a percentile shift, in which each value was divided by the 75th percentile of all values in its array. For pairwise comparison analysis, only the probes that had expression flags present under at least one condition were considered. The list was analyzed with Ingenuity Pathways Analysis software (Ingenuity Systems, Redwood, Calif., USA). (i) 2SA cells and 2SD cells were collected at 0, 4, and 8 hours after treatment of 10 mM lactate or 10 mM of pyruvate. After RNA were extracted from these cells, exhaustive gene expression analysis were performed using microarray analysis.

2SD cells [7] = experiment: ELISA of GDF15 concentration in culture medium; format: cell-based, human; details: 10 mM lactate, medium cultured 24 h
Method: Cells were placed on 60-mm dishes 1 day before replacing the medium with fresh medium. Conditioned medium cultured for 24 h was collected, and the particulates were removed by centrifugation (at 500×g for 10 min, at 10,000×g for 30 min). The GDF15 and INHBE concentrations in the supernatants and in the sera of patients were determined in duplicate by using a Human GDF-15 Immunoassay (DGD150, R&D Systems, Minneapolis, Minn., USA) and enzyme-linked immunosorbent assay kit for Inhibin Beta E (E90048Hu, Uscn Life Science, Wuhan, Hubei, PRC) according to the manufacturer's instructions. For measuring IL1A and other cytokine concentrations, the sera were subjected to a multiplex suspension array, Bio Plex Pro Human Cytokine Grp II Panel 21-Plex (MF0-005KMII, Bio-Rad, Hercules, Calif., USA). The cytokines measured by use of this array were the following: IL-2Rα, IL-3, IL-12 (p40), IL-16, IL-18, CTACK, GRO-α, HGF, IFN-α2, LIF, MCP-3, M-CSF, MIF, MIG, β-NGF, SCF, SCGF-β, SDF-1α, TNF-β, and TRAIL.
(v) The concentrations of three secreted proteins as candidate biomarkers in cell culture were measured by ELISA and multiplex suspension arrays. […] Other secreted proteins could not be measured under the detection limit.

[8] = test system: mitochondrial disease patients; experiment: sodium pyruvate therapy for mitochondrial disease patients; format: in vivo, human; details: patients n=10, 0.3 g/kg to 2 g/kg, over seven years
From the text: 4. Study of sodium pyruvate therapy for mitochondrial disease patients For mitochondrial disease patients (n=10), sodium pyruvate (0.3 g/kg to 2 g/kg) had been administered for over seven years. During the period, the transition of
FGF-21 and GDF-15 had been determined and parameters of other therapeutic effects had been investigated. The mitochondrial disease patients contained PDH E1A deficiency, MELAS/cardiomyopathy with A3243G mutation, and MELAS/Leigh syndrome with G13513A mutation in the ND5 gene.

[9] = 10 mM lactate, 8 h vs 0 h after lactate treatment
[10] = lactate vs pyruvate treatment at 8 h

CC(O)C(=O)O (stereo not shown) [lactate, lactic acid]
energy metabolism disorder (2SD cells [1]): remarkable
energy metabolism disorder (2SA cells (control cell) [2]): not observed
energy metabolism disorder (2SD cells [3]): remarkable
energy metabolism disorder (2SA cells (control cell) [4]): not observed
expression level of GDF15 (2SD cells [5]): increased
expression level of IL1A (2SD cells [5]): increased
expression level of INHBE (2SD cells [5]): increased
Fold Change L-8/L-0, ADAMTS17 [6, 9]: 3.5
Fold Change L-8/L-0, ADM2 [6, 9]: 10.3
Fold Change L-8/L-0, AMTN [6, 9]: 5.0
Fold Change L-8/L-0, APOL6 [6, 9]: 6.2
Fold Change L-8/L-0, AREG [6, 9]: 14.0
Fold Change L-8/L-0, C1QTNF1 [6, 9]: 2.6
Fold Change L-8/L-0, C12orf39 [6, 9]: 6.3
Fold Change L-8/L-0, CLEC3B [6, 9]: 2.1
Fold Change L-8/L-0, CXCL1 [6, 9]: −3.4
Fold Change L-8/L-0, DKK1 [6, 9]: −2.1
Fold Change L-8/L-0, ECM2 [6, 9]: 11.8
Fold Change L-8/L-0, GDF15 [6, 9]: 27.4
Fold Change L-8/L-0, HECW2 [6, 9]: 2.4
Fold Change L-8/L-0, IGFALS [6, 9]: 2.3
Fold Change L-8/L-0, IGFBPI [6, 9]: 2.3
Fold Change L-8/L-0, IL1A [6, 9]: 7.6
Fold Change L-8/L-0, IL23A [6, 9]: 4.4
Fold Change L-8/L-0, INHBE [6, 9]: 15.0
Fold Change L-8/L-0, MMP3 [6, 9]: 9.8
Fold Change L-8/L-0, PDGFA [6, 9]: 2.2
Fold Change L-8/L-0, PDGFB [6, 9]: 2.8
Fold Change L-8/L-0, PDZRN3 [6, 9]: −2.4
Fold Change L-8/L-0, SCG5 [6, 9]: 5.2
Fold Change L-8/L-0, SLC39A10 [6, 9]: −2.3
Fold Change L-8/L-0, SPOCK2 [6, 9]: 5.1
Fold Change L-8/L-0, STC2 [6, 9]: 3.4
Fold Change L-8/L-0, VEGFA [6, 9]: 3.4
Fold Change L-8/P-8, ADAMTS17 [6, 10]: 2.2
Fold Change L-8/P-8, ADM2 [6, 10]: 3.0
Fold Change L-8/P-8, AMTN [6, 10]: 3.9
Fold Change L-8/P-8, APOL6 [6, 10]: 3.8
Fold Change L-8/P-8, AREG [6, 10]: 2.2
Fold Change L-8/P-8, C1QTNF1 [6, 10]: 2.9
Fold Change L-8/P-8, C12orf39 [6, 10]: 6.7
Fold Change L-8/P-8, CLEC3B [6, 10]: 2.2
Fold Change L-8/P-8, CXCL1 [6, 10]: −2.6
Fold Change L-8/P-8, DKK1 [6, 10]: −2.3
Fold Change L-8/P-8, ECM2 [6, 10]: 9.0
Fold Change L-8/P-8, GDF15 [6, 10]: 14.8
Fold Change L-8/P-8, HECW2 [6, 10]: 2.1
Fold Change L-8/P-8, IGFALS [6, 10]: 2.5
Fold Change L-8/P-8, IGFBPI [6, 10]: 2.1
Fold Change L-8/P-8, IL1A [6, 10]: 6.0
Fold Change L-8/P-8, IL23A [6, 10]: 2.8
Fold Change L-8/P-8, INHBE [6, 10]: 9.4
Fold Change L-8/P-8, MMP3 [6, 10]: 4.2
Fold Change L-8/P-8, PDGFA [6, 10]: 2.2
Fold Change L-8/P-8, PDGFB [6, 10]: 3.8
Fold Change L-8/P-8, PDZRN3 [6, 10]: −2.0
Fold Change L-8/P-8, SCG5 [6, 10]: 3.0
Fold Change L-8/P-8, SLC39A10 [6, 10]: −2.9
Fold Change L-8/P-8, SPOCK2 [6, 10]: 6.6
Fold Change L-8/P-8, STC2 [6, 10]: 2.6
Fold Change L-8/P-8, VEGFA [6, 10]: 2.5
concentration of GDF15 in culture medium (2SD cells [7]): increased

CC(=O)C(=O)O [pyruvate, pyruvic acid]
energy metabolism disorder (2SD cells [1]): not observed
energy metabolism disorder (2SD cells [3]): not observed
expression level of GDF15 (2SD cells [5]): not changed
expression level of IL1A (2SD cells [5]): not changed
expression level of INHBE (2SD cells [5]): not changed

CC(=O)C(=O)[O-].[Na+] [sodium pyruvate]
concentration of GDF-15 [8]: significantly reduced
concentration of alanine [8]: significantly reduced
concentration of lactate [8]: significantly reduced
concentration of pyruvate [8]: significantly reduced
side effects [8]: no side effects were observed
therapeutic effect [8]: highly effective therapy
